Consider one compound from article PMC12016938, “A small molecule PKCε inhibitor reduces hyperalgesia induced by paclitaxel or opioid withdrawal” (JCI Insight, 2025).

The target in one series is T1, PKCγ (Homo sapiens, UniProt P05129).
T1 construct: purchased SignalChem Biotech
Kind of series: Lance-FRET kinase assay, PKCγ. It counts as biochemical. The following applies: Figure 1B. The protocol: Kinase assays. CP612 was assayed against His-AVI–tagged human PKCε (1 nM) produced in Sf9 cells, and ROCK1 (Carna Biosciences; 5 nM) using the Lance-FRET kinase assay system (PerkinElmer Revvity). Other human recombinant PKCs (SignalChem Biotech) were assayed in triplicate at the following concentrations: PKCβII 1.6 nM, PKCγ 500 pM, PKCδ 5 nM, PKCθ 500 pM, and PKCζ 500 pM. PKCs were incubated in a 15 μL reaction volume with kinase buffer (20 mM Tris-HCL [pH 7.4], 10 mM MgCl2, 0.25 mM EGTA, 0.1 mg/mL BSA, and 0.15% Triton X-100), 50 nM ULight-labeled CREBtide […] (PerkinElmer, TRF0107, Revvity), and test compound. […] After incubation at 27°C for another 60 minutes, phosphorylation was detected using a FlexStation 3 Microplate Reader (Molecular Devices) in LANCE TR-FRET mode (excitation = 340 nm, emission = 665 nm) and expressed as relative fluorescence units (RFU). The percentage of inhibition was calculated as: (signal without test compound − signal with test compound)/(signal without test compound − signal without ATP) × 100. […]
Kinase assays used 11-point concentration-response curves and results were analyzed by nonlinear regression using Prism 9 (GraphPad Software) to determine IC50 values. […] Scores for pain threshold, conditioned place preference, and self-administration were analyzed by ANOVA using the following factors. […]

Series [1] in a line: Kinetic aqueous solubility. It counts as physicochemical. The protocol: Kinetic aqueous solubility. Test compounds were diluted 100-fold from 1 mM DMSO stocks into 0.1M phosphate-buffered saline (PBS) in triplicate. Diluted samples were shaken at room temperature at 600 rpm for 3 hours and then filtered by centrifugation (0.2 μm, PVDF) at 1,000g for 1 minute. Aliquots of 100 μL were diluted into 3 volumes of acetonitrile for extraction, vortexed for 15 seconds, centrifuged at 16,000g for 10 minutes at 4°C, and then analyzed by liquid chromatography–mass spectrometry (LC-MS).

In series [2] the test system is somatic signs of morphine withdrawal. The series can be described thus: Somatic signs of morphine withdrawal precipitated by naloxone. Also noted: key to Score: Rearing / Score: Teeth chatter / Score: Body shakes / Score: Wall climbing / Score: Backpedaling / Score: Hopping: score of 1 per occurrence and episode; key to Global Withdrawal Score (sum of all scores): sum of behavior scores, 1 point per occurrence/episode. In kind it is in vivo, DBA/2J mice. As to conditions: for Global Withdrawal Score (sum of all scores) / Score: Backpedaling / Score: Body shakes / Score: Hopping / Score: Rearing / Score: Teeth chatter / Score: Wall climbing: individual mice, 20 min interval; for Global Withdrawal Score (sum of all scores): after naloxone (5 mg/kg, i.p.); for Score: Backpedaling / Score: Body shakes / Score: Hopping / Score: Rearing / Score: Teeth chatter / Score: Wall climbing: number of observations after naloxone (5 mg/kg, i.p.). The protocol:
In addition to hyperalgesia, withdrawal from repeated administration of morphine produces somatic signs of withdrawal and conditioned place aversion. We tested the effects of CP612 on these responses. […] Two hours after this last injection of saline or morphine, mice were administered naloxone (5 mg/kg, i.p.) to precipitate somatic signs of withdrawal and conditioned place aversion. Withdrawal from repeated administration of morphine evoked somatic signs of withdrawal (Figure 11, A–C, and Supplemental Figure 2); only the highest dose of CP612 (40 mg/kg) reduced them (Figure 11, A–C) [H PKC inhibition (3, n = 62) = 33.34, P < 0.001]. Withdrawal from repeated administration of morphine also evoked conditioned place aversion (Figure 11, A and C) [F PKC inhibition (5,78) = 7.16, P < 0.001; mice receiving repeated administration of saline with vehicle versus mice receiving repeated administration of morphine with vehicle, P < 0.001], and this was not modified by CP612 at any dose tested (all P > 0.079).
The place conditioning apparatus was an acrylic box enclosed in light- and sound-attenuating, ventilated chambers (MED Associates). The box had 2 compartments separated by a removable sliding door. […] The dimensions of each compartment were 13.5 × 27 × 17 cm. Infrared light beams and photodetectors located along the walls of the box measured general activity and location of the mouse in each compartment, which were recorded using Activity Monitor version 7.0.5.10 software (Med Associates). On day 0 (pretest), drug-naive mice were acclimated for 15 minutes to the place conditioning apparatus without the sliding door, so they had free access to both compartments of the apparatus. This established a baseline side preference, based on the amount of time spent in each compartment. […] On day 6 (conditioning day), mice were pretreated with vehicle (10 mL/kg, i.p.) or CP612 (5, 10, 20, or 40 mg/kg, i.p.), followed by a single injection of morphine (100 mg/kg, i.p.) 4 hours later. Two hours after this last injection of morphine, mice were administered naloxone (5 mg/kg, i.p.), to precipitate withdrawal, and were immediately confined to 1 side of the conditioning apparatus for 20 minutes. During this conditioning period, mice were filmed (Raspberry Pi Camera) to assess somatic signs of withdrawal ([39]). Given the limited number of cameras and the poor quality of some videos, we were only able to film a subset of mice. The following behaviors were given a score of 1 per occurrence and episode: body shakes (paw tremors and wet dog shakes), teeth chatter, rearing, hopping, wall climbing, and backpedaling. These scores were summed to obtain a global withdrawal score and were obtained from an independent observer who was blind to the experimental conditions. A subset of videos was scored by 2 observers, to ensure internal validity (Cronbach’s α = 0.980, Correlation Observer r = 0.97, slope 1.15, P < 0.005). On day 7 (test day), mice were placed in the conditioning apparatus with free access to both compartments, for 15 minutes. We recorded the time spent in each compartment.
Gregory-Flores et al. (Supplementary Table and Figures)
Figure S2. Behavioral scores of morphine withdrawal precipitated by naloxone. Male mice

Converted amounts (≈) assume the structure as drawn. “And” between values parts separate entries of the source, which are not always exact repeats. Identical values can stand only once. “Also recorded” adds a separate entry of the source. Like-named read-outs stand apart in the source and are kept apart here.

What is called solubility (kinetic) is solubility judged after dilution from a stock solution rather than from solid. For `N[C@H](CNC(=O)C1(c2ccc(Cl)cc2)CCCC1)c1ccc(C(=O)Nc2ccncc2)cc1` [CP612], the “Inhibition of conventional PKCγ” value at PKCγ is reported as “weakly inhibited”. The solubility (kinetic) at 3 h in series [1] (0.1M phosphate-buffered saline (PBS), aqueous buffer, kinetic from dmso stock, 0.1M PBS, room temperature, 3 hours, read-out: Kinetic aqueous solubility) was found to be 7410 ± 120 nM (≈ 3.43 µg/mL). Also, the solubility (kinetic) at 3 h in series [1] (0.1M phosphate-buffered saline (PBS), aqueous buffer, kinetic from dmso stock, mean of 3 samples, read-out: Kinetic aqueous solubility, Corrected (nM), Mean) amounted to 7410 nM (≈ 3.43 µg/mL). Also, the kinetic solubility at 3 h in series [1] (0.1M phosphate-buffered saline (PBS), aqueous buffer, kinetic from dmso stock, single sample, read-out: Kinetic aqueous solubility, Corrected) amounted to 7540 nM (≈ 3.49 µg/mL). In addition, the solubility (kinetic) at 3 h in series [1] (single sample, read-out: Kinetic aqueous solubility, Corrected) is 7309.08 nM and 7388.24 nM. In addition, in series [2] (Morphine + CP612 10 mg/kg), the “Global Withdrawal Score (sum of all scores)” value is 26 and 36 and 21 and 32 and 23 and 19 and 28 and 25 and 22 and 8 and 11 and 13 and 12; the “Score: Backpedaling” value is 0 and 2 and 1; the “Score: Body shakes” value was 6 and 9 and 7 and 10 and 2 and 11 and 8 and 1; the “Score: Hopping” value was 0 and 1. Moreover, in series [2] (Morphine + CP612 10 mg/kg), the “Score: Rearing” value was 16 and 15 and 9 and 10 and 7 and 13 and 12 and 2 and 3 and 8; the “Score: Teeth chatter” value was 3 and 4 and 2 and 0 and 1; the “Score: Wall climbing” value was 1 and 7 and 2 and 3 and 0 and 4 and 5. Besides, in series [2] (Morphine + CP612 40 mg/kg), the “Global Withdrawal Score (sum of all scores)” value is 17 and 23 and 18 and 11 and 8 and 4 and 10 and 13 and 9; the “Score: Backpedaling” value was 3.5 and 0 and 1; the “Score: Body shakes” value is 1 and 5 and 9 and 2 and 0; the “Score: Hopping” value was 0.5 and 0 and 1. In addition, in series [2] (Morphine + CP612 40 mg/kg), the “Score: Rearing” value was 9 and 14 and 2 and 4 and 1 and 6 and 7 and 8; the “Score: Teeth chatter” value was 0.5 and 3 and 5 and 2 and 1 and 0; the “Score: Wall climbing” value is 2 and 1 and 0 and 3. The “Somatic signs of naloxone-precipitated morphine withdrawal” value in series [2] (male DBA/2J mice, CP612 10 mg/kg i.p. (low dose)) is reported as “evoked signs of withdrawal”. Moreover, the “Effect on somatic signs of naloxone-precipitated morphine withdrawal” value in series [2] (male DBA/2J mice, CP612 40 mg/kg i.p., 40 mg/kg) is given as “attenuated; also recorded: reduced; also recorded: decreased”.
